Data from US9975880B2, “Imidazolidine-2,4-dione dervatives” (IPSEN PHARMA S.A.S., priority 2013, dated 2018).
Values after ≈ are worked out from the molar mass of the structure shown.

Columns and labels:
Evaluation of solubility = type: physicochemical; conditions: aqueous buffer, kinetic from dmso stock; 100 mM potassium phosphate buffer pH 7.4, 0.1% DMSO, target 100 μM, 1 hour room temperature, LC-MS/MS
Method: Test compounds were prepared as stock solutions at 100 mM in DMSO. The stock solutions were diluted, in duplicate, into 100 mM potassium phosphate buffer (pH 7.4) to a target concentration of 100 μM with a final DMSO concentration of 0.1%. The solutions were shaken at 1000 rpm for 1 hour at room temperature followed by centrifugation for 10 minutes at 1200 rpm to precipitate un-dissolved particles. The supernatants were transferred to new tubes and the samples were further prepared as follows: • Undiluted: 5 μL of supernatant to 95 μL of ACN containing internal standard (IS) • 1:10 diluted: 10 μL of the supernatant into 90 μL K-buffer, mix, then transfer 5 μL of 1:10 diluted samples to 95 μL ACN containing IS • 1:100 diluted: 10 μL of the supernatant into 990 μL K-buffer, mix, then transfer 5 μL of 1:100 diluted samples to 95 μL of ACN containing IS
Samples (undiluted, 1:10 diluted, and 1:100 diluted) along with the standards were analyzed by LC-MS/MS.

DU145 cells = assay: Anti-proliferative activity on DU145 in complete medium; type: cell-based; conditions: DU145 (no androgen receptor), 144 h, up to 10,000 nM, Cell-Titer-Glow
Method: (§1) It is used to evaluate the selectivity of the compounds for androgen receptor expressing cells. No activity of the compounds is expected. • The cells of the DU145 line (ATCC HTB-81) are seeded at 800 cells/well in 90 μl of complete medium in 96-well plates coated with poly-D-lysine (Biocoat, Costar). • Treatment of the cells: 24 h after the seeding, the cells are treated with 10 μl/well of compound diluted in the culture medium. The concentrations used are the following: 1 nM/10/30/100/300/1000/3000/10,000 nM. The cells are incubated for 144 h at 37° C., 5% CO2. • Reading: After incubation for 6 days, cell proliferation was determined by Cell-Titer-Glow (CTG) Luminescent Cell Viability Assay • Results: The experiments are carried out in duplicate and the best compounds are tested twice. A concentration value inhibiting the cell proliferation by 50% (IC50) is calculated.

LNCaP cells = assay: Anti-proliferative activity on LNCaP in complete medium; type: cell-based; conditions: Homo sapiens, 144 h, complete medium, 144 h incubation, Cell-Titer-Glow, read-out: IC50 on the LNCaP cells in culture (inhibition of cell proliferation by 50%)
Method: The anti-proliferative activity of the compounds of the present invention is determined on LNCaP in complete medium by applying the following experimental procedure:
The LNCaP cell type (ATCC, 1740) originates from a prostate carcinoma. This line expresses the androgen receptor and is hormone-dependent.
Maintenance of the LNCaP line is carried out in complete culture medium: RPMI, 10% of fetal calf serum, 2 mM glutamine, 100 U/ml penicillin, 0.1 mg/ml of streptomycin and 0.01M HEPES, 1 mM sodium pyruvate, […]. • Seeding the plates:
The LNCaP line is seeded at 20,000 cells/well in 90 μl of complete medium in 96-well plates coated with poly-D-lysine (Biocoat, Costar). • Treatment of the cells: 24 h after the seeding, the cells are treated with 10 μl/well of compound diluted in the culture medium. The concentrations used are the following: 1 nM/10/30/100/300/1000/3000/10,000 nM. The cells are incubated for 144 h at 37° C., 5% CO2. • Reading: After incubation for 6 days, cell proliferation was determined by Cell-Titer-Glow (CTG) Luminescent Cell Viability Assay. • Results: The experiments are carried out in duplicate and the best compounds are tested twice. […] Anti-Proliferative Activity on DU145 in Complete Medium

VCaP cells = assay: Anti-proliferative activity on VCaP in complete medium; type: cell-based; conditions: Homo sapiens, Cell-Titer-Glow, read-out: IC50 on the VCaP cells in culture (inhibition of cell proliferation by 50%)
Method: as §1, with “•” for “It is used to evaluate the selectivity of the compounds for androgen receptor expressing cells. No activity of the compounds is expected. •”, “the VCaP” for “the DU145”, “(ATCC CRL-2876)” for “(ATCC HTB-81)”, “at 20000” for “at 800”, “for […]” for “for 6”

Structure (SMILES)	solubility at 1 h (Evaluation of solubility) [µM]	IC50 on DU145 cells (anti-proliferative effect) (DU145 cells)	IC50 (LNCaP cells) [µM]	IC50 (VCaP cells) [µM]
CC1(C)C(=O)N(c2ccc(S(C)(=O)=O)c(C(F)(F)F)c2)C(=O)N1C/C=C\Cn1cc(-c2ccc(S(C)(=O)=O)c(C(F)(F)F)c2)cn1 [Example 3, (Z)-5,5-dimethyl-3-(4-(methylsulfonyl)-3-(trifluoromethyl)phenyl)-1-(4-(4-(4-(methylsulfonyl)-3-(trifluoromethyl)phenyl)-1H-pyrazol-1-yl)but-2-en-1-yl)imidazolidine-2,4-dione]	0.2 (≈ 0.139 µg/mL)	no measurable IC50	< 1.5	≤ 5
CC1(C)C(=O)N(c2ccc(C#N)c(C(F)(F)F)c2)C(=O)N1C/C=C\CN1CCN(c2ccc(S(C)(=O)=O)c(C(F)(F)F)c2)C1=O [Example 10, (Z)-4-(4,4-dimethyl-3-(4-(3-(4-(methylsulfonyl)-3-(trifluoromethyl)phenyl)-2-oxoimidazolidin-1-yl)but-2-en-1-yl)-2,5-dioxoimidazolidin-1-yl)-2-(trifluoromethyl)benzonitrile]		no measurable IC50		≤ 5
CC1(C)C(=O)N(c2ccc(C#N)c(C(F)(F)F)c2)C(=O)N1C/C=C\CN1CCC(c2ccc(C#N)c(C(F)(F)F)c2)C1 (stereo not drawn) [Example 12, (Z)-4-(1-(4-(3-(4-cyano-3-(trifluoromethyl)phenyl)-5,5-dimethyl-2,4-dioxoimidazolidin-1-yl)but-2-en-1-yl)pyrrolidin-3-yl)-2-(trifluoromethyl)benzonitrile]		no measurable IC50	< 1.5	≤ 5
CC1(C)C(=O)N(c2ccc(C#N)c(C(F)(F)F)c2)C(=O)N1C/C=C\CN1CC(c2ccc(S(C)(=O)=O)c(C(F)(F)F)c2)CC1=O (stereo not drawn) [Example 13, (Z)-4-(4,4-dimethyl-3-(4-(4-(4-(methylsulfonyl)-3-(trifluoromethyl)phenyl)-2-oxopyrrolidin-1-yl)but-2-en-1-yl)-2,5-dioxoimidazolidin-1-yl)-2-(trifluoromethyl)benzonitrile]		no measurable IC50	< 1.5	≤ 5
CC1(C)C(=O)N(c2ccc(C#N)c(C(F)(F)F)c2)C(=O)N1C/C=C\CN1CC(c2ccc(S(C)(=O)=O)c(Cl)c2)CC1=O (stereo not drawn) [Example 14, (Z)-4-(3-(4-(4-(3-chloro-4-(methylsulfonyl)phenyl)-2-oxopyrrolidin-1-yl)but-2-en-1-yl)-4,4-dimethyl-2,5-dioxoimidazolidin-1-yl)-2-(trifluoromethyl)benzonitrile]	24.1 (≈ 15 µg/mL)	no measurable IC50		≤ 5
